# Results: the NIST ThermoML archive (doi:10.1021/acs.jced.7b01064)
# Numbers after ± are expanded uncertainties.
# Tests used:
# [1] = xn = mol fraction of the nth substance listed; settings: 100 kPa, Liquid, x1 = 0.5; for viscosity: Concentric cylinders viscometry; for mass density: Vibrating tube method
# [2] = molar heat capacity at constant pressure; xn = mol fraction of the nth substance listed; settings: 74.66 kPa, Liquid, DSC, x1 = 0.5
# [3] = Liquid, Closed cell (Static) method
smiles,measurement,setting,value
"CCCCOC(=O)CC(O)(CC(=O)O)C(=O)OCCCC (configuration not stated) [2-hydroxy-1,2,3-propanetricarboxylic acid 1,2-dibutyl ester] + CCCCOC(=O)CC(O)(CC(=O)OCCCC)C(=O)O",viscosity,[1]; 298.15 K,3220 ± 200 mPa·s
same,mass density,[1]; 298.15 K,1129.7 ± 57 kg/m3
same,viscosity,[1]; 303.15 K,2120 ± 140 mPa·s
same,mass density,[1]; 303.15 K,1124.2 ± 57 kg/m3
same,viscosity,[1]; 313.15 K,1130 ± 110 mPa·s
same,mass density,[1]; 313.15 K,1113.4 ± 56 kg/m3
same,molar heat capacity at constant pressure,[2]; 321.5 K,712.66 ± 76 J/K/mol
same,molar heat capacity at constant pressure,[2]; 324.8 K,718.9 ± 76 J/K/mol
same,molar heat capacity at constant pressure,[2]; 328.2 K,724.78 ± 77 J/K/mol
same,molar heat capacity at constant pressure,[2]; 331.5 K,730.1 ± 77 J/K/mol
same,molar heat capacity at constant pressure,[2]; 334.8 K,734.82 ± 78 J/K/mol
same,molar heat capacity at constant pressure,[2]; 338.2 K,739.17 ± 78 J/K/mol
same,molar heat capacity at constant pressure,[2]; 341.5 K,743.58 ± 79 J/K/mol
same,molar heat capacity at constant pressure,[2]; 344.8 K,747.72 ± 79 J/K/mol
CCCCO [butan-1-ol],vapor or sublimation pressure,[3]; 293.15 K,0.56 ± 0.06 kPa
same,vapor or sublimation pressure,[3]; 298.15 K,0.84 ± 0.08 kPa
same,vapor or sublimation pressure,[3]; 303.15 K,1.23 ± 0.12 kPa
same,vapor or sublimation pressure,[3]; 308.15 K,1.76 ± 0.18 kPa
same,vapor or sublimation pressure,[3]; 313.15 K,2.44 ± 0.24 kPa
same,vapor or sublimation pressure,[3]; 318.15 K,3.33 ± 0.33 kPa
same,vapor or sublimation pressure,[3]; 323.15 K,4.35 ± 0.44 kPa
same,vapor or sublimation pressure,[3]; 328.15 K,5.33 ± 0.53 kPa
